This is an account of results in patent publication US5292740A, “Sulfonamides” (Hoffmann-La Roche Inc., priority 1991, dated 1994).

pEC50, pIC50: −log10 of the molar value.

The target in one assay is endothelin receptors. The assay is described as follows: Inhibition of endothelin binding to human placenta membranes. The conditions noted are these: 125I-endothelin 20 pM, 20° C. for 2 hours or 4° C. for 24 hours, read-out: IC50 (concentration required to inhibit 50% of the specific binding of 125I-endothelin). As for the experimental part: I: Inhibition of endothelin binding to human placenta membranes (see. Life Sci 44:1429 (1989))
Human placenta is homogenized in 5 mM Tris buffer, pH 7.4, which contains 1 mM MgCl2 and 250 mM sucrose. The homogenizate is centrifuged at 4° C. and 3000 g for 15 minutes, the supernatant containing the plasma membrane fraction is centrifuged with 72000 g for 30 minutes and the precipitate is washed with 75 mM Tris buffer, pH 7.4, which contains 25 mM MgCl2. Thereafter, precipitate obtained from, in each case, 10 g of original tissue is suspended in 1 ml of 75 mM Tris buffer, pH 7.4, containing 25 mM MgCl2 and 250 mM sucrose, and freeze-dried at -20° C. in 1 ml aliquots.
For the binding assay, the freeze-dried membrane preparations are thawed and, after centrifugation at 20° C. and 25000 g for 10 minutes, re-suspended in assay buffer (50 mM Tris buffer, pH 7.4, containing 25 mM MnCl2, 1 mM EDTA and 0.5% of bovine serum albumin). […] of this membrane suspension containing […] of protein are incubated with […] of ^125 I-endothelin (specific activity 2200 Ci/mMol) in assay buffer (25000 cpm, final concentration 20 pM) and […] of assay buffer containing varying concentrations of test compound. The incubation is carried out at 20° C. for 2 hours or at 4° C. for 24 hours. The separation of free and membrane-bound radioligands is carried out by filtration over a glass fibre filter.
The inhibitory activity of compounds of formula I determined in this test procedure is given in Table 1 as the IC50, that is, as the concentration […] which is required to inhibit 50% of the specific binding of ^125 I-endothelin.

The next assay has as its system rats. The assay is described as follows: Inhibitory activity on vasoconstriction in vivo in rats (renal ischaemia, renal perfusion by Doppler). The conditions noted are these: 45 minutes renal ischaemia; compound given 10 minutes before, 5 mg/kg i.a. or 10 mg/kg i.v.; control tests 43±4% reduction vs preischaemic value. Set-up: species or system rat. The procedure: III. The inhibitory activity of the compounds of formula I on vasoconstriction can be observed in vivo in rats in the test procedure described hereinafter:
Rats were anaesthetized with Na thiobutabarbital (100 mg/kg i.p.). A catheter for measuring the systemic arterial blood pressure was placed through the femoral artery and a catheter was placed in the vena cava via the femoral vein for injection of the test compounds. A Doppler sonde was placed around the left renal artery and attached to a Doppler measuring apparatus. A renal ischaemia was produced by pinching off the left renal artery at its point of exit for 45 minutes. 10 minutes prior to the induction of the ischaemia the test compounds were administered intraarterially (i.a.) in dosages of 5 mg/kg or intravenously (i.v.) in dosages of 10 mg/kg. In control tests, the renal perfusion was reduced by 43±4% compared to the preischaemic value.

Assay [1] deals with isolated rat aorta rings (endothelin-induced contractions). The assay is described as follows: Inhibition of endothelin-induced contractions in isolated rat aorta rings. The format is cell-based, rat (adult Wistar-Kyoto). The conditions noted are these: in the absence of test compounds; read-out: EC50 of endothelin (concentration required for a half-maximum contraction). As for the experimental part:
II. Inhibition of endothelin-induced contractions in isolated rat aorta rings
Rings with a length of 5 mm were cut out from the thorax aorta of adult Wistar-Kyoto rats. The endothelium was removed by lightly rubbing the internal surface. Each ring was immersed at 37° C. in 10 ml of Krebs-Henseleit solution in an isolated bath while gassing with 95% O2 and 5% CO2. The isometric stretching of the rings was measured. The rings were stretched to a pretension of 3 g. After incubation for 10 minutes with the test compound or vehicle, cumulative dosages of endothelin-1 were added. The activity of the test compound was determined by calculating the dosage ratios, that is, the shift to the right (shift to higher values) of the EC50 of endothelin induced by […] of test compound, with EC50 denoting the endothelin concentration required for a half-maximum contraction. […] The EC50 of endothelin in the absence of test compounds is 0.3 nM.

For the molecule `COc1ccccc1Oc1c(NS(=O)(=O)c2ccc(C(C)(C)C)cc2)ncnc1OCCO` [Example 1, p-t-butyl-N-[6-(2-hydroxyethoxy)-5-(o-methoxyphenoxy)-4-pyrimidinyl]benzenesulfonamide], on endothelin receptors, the pIC50 was 6.94. Moreover, in the assay on rats, the “% Decrease in renal perfusion” value was determined as 13.4 ± 5.2%.
Regarding `COc1ccccc1Oc1c(NS(=O)(=O)c2ccc(C(C)C)cc2)ncnc1OCCO` [Example 2, N-[6-(hydroxyethoxy)-5-(o-methoxyphenoxy)-4-pyrimidinyl]-p-isopropylbenzenesulfonamide], on endothelin receptors, the pIC50 is 7.00.
Turning to `COc1cccc(Oc2c(NS(=O)(=O)c3ccc(C(C)(C)C)cc3)ncnc2OCCO)c1` [Example 6, p-t-butyl-N-[6-(2-hydroxyethoxy)-5-(m-methoxyphenoxy)-4-pyrimidinyl]benzenesulphonamide], the pIC50 on endothelin receptors is 6.70. Moreover, the “% Decrease in renal perfusion” value with rats is on record as 11.7 ± 4.7%.
Turning to `COc1ccccc1Oc1c(NS(=O)(=O)c2ccc(C(C)C)cc2)nc(-c2ccccc2)nc1OCCO` [Example 12, N-[6-(2-hydroxyethoxy)-5-(o-methoxyphenoxy)-2-phenyl-4-pyrimidinyl]-p-isopropylbenzenesulfonamide], the pIC50 at endothelin receptors is 6.90.
On the same count and under the same terms, the result for `COc1ccccc1Oc1c(NS(=O)(=O)c2ccc(C(C)C)cc2)nc(C)nc1OCCO` [Example 24, N-[6-(2-hydroxyethoxy)-5-(o-methoxyphenoxy)-2-methyl-4-pyrimidinyl]-p-isopropylbenzenesulfonamide] reads 7.14.
Turning to `COc1ccccc1Oc1c(NS(=O)(=O)c2ccc(C(C)C)cc2)nc(C(F)(F)F)nc1OCCO` [Example 25], the pIC50 at endothelin receptors was 7.30.
Still for that read-out and setting: the result for `CC(C)(C)c1ccc(S(=O)(=O)Nc2ncnc(OCCO)c2Oc2ccc3c(c2)OCO3)cc1` [Example 27, N-[5-(1,3-benzodioxol-5-yloxy)-6-(2-hydroxyethoxy)-4-pyrimidinyl]-p-tert-butylbenzenesulfonamide] reads 7.00.
In the case of “endothelin: endothelin-1, agonist added in cumulative dosages to contract rat aorta rings”, the pEC50 in assay [1] was 9.52.
